Results published in PubChem BioAssay (NCI).
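Tested at 5 concentrations; 48 h exposure; 96-well plates; endpoints linearly interpolated, else capped at highest concentration. The concentration for full growth arrest is given as TGI.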

What was measured:
Test in all cases: NCI tumour cell line growth inhibition, 48 h
SK-OV-3 ovarian = system: SK-OV-3 ovarian
CCRF-CEM leukemia = system: CCRF-CEM leukemia
OVCAR-8 ovarian = system: OVCAR-8 ovarian
SF-295 CNS = system: SF-295 CNS
DU-145 prostate = system: DU-145 prostate
SF-268 CNS = system: SF-268 CNS
EKVX NSCLC = system: EKVX NSCLC
PC-3 prostate = system: PC-3 prostate
HCT-116 colon = system: HCT-116 colon
NCI-H23 lung = system: NCI-H23 lung
COLO 205 colon = system: COLO 205 colon
UO-31 renal = system: UO-31 renal
U251 CNS = system: U251 CNS
HOP-62 NSCLC = system: HOP-62 NSCLC
SK-MEL-5 melanoma = system: SK-MEL-5 melanoma
TK-10 renal = system: TK-10 renal
NCI-H460 lung = system: NCI-H460 lung
NCI-H226 lung = system: NCI-H226 lung
KM12 colon = system: KM12 colon
SNB-19 CNS = system: SNB-19 CNS
SN12C renal = system: SN12C renal
SW-620 colon = system: SW-620 colon
LOX IMVI melanoma = system: LOX IMVI melanoma
RXF 393 renal = system: RXF 393 renal
MDA-N = system: MDA-N
A549 NSCLC = system: A549 NSCLC
MCF7 breast = system: MCF7 breast
SNB-75 CNS = system: SNB-75 CNS
A498 renal = system: A498 renal
HCC-2998 colon = system: HCC-2998 colon
SK-MEL-2 melanoma = system: SK-MEL-2 melanoma
OVCAR-4 ovarian = system: OVCAR-4 ovarian
SR leukemia = system: SR leukemia
HS 578T breast = system: HS 578T breast
RPMI-8226 leukemia = system: RPMI-8226 leukemia
UACC-257 melanoma = system: UACC-257 melanoma
NCI/ADR-RES ovarian = system: NCI/ADR-RES ovarian
HL-60(TB) leukemia = system: HL-60(TB) leukemia
HT29 colon = system: HT29 colon
SK-MEL-28 melanoma = system: SK-MEL-28 melanoma
ACHN renal = system: ACHN renal
M14 melanoma = system: M14 melanoma
HOP-92 NSCLC = system: HOP-92 NSCLC
K-562 leukemia = system: K-562 leukemia
MDA-MB-231 breast = system: MDA-MB-231 breast
NCI-H522 lung = system: NCI-H522 lung
HCT-15 colon = system: HCT-15 colon
MOLT-4 leukemia = system: MOLT-4 leukemia
786-0 renal = system: 786-0 renal
UACC-62 melanoma = system: UACC-62 melanoma
MDA-MB-435 = system: MDA-MB-435
T-47D breast = system: T-47D breast
BT-549 breast = system: BT-549 breast
CAKI-1 renal = system: CAKI-1 renal
IGROV1 ovarian = system: IGROV1 ovarian
MALME-3M melanoma = system: MALME-3M melanoma
OVCAR-5 ovarian = system: OVCAR-5 ovarian

In the case of `O=C(c1ccccc1)n1c(Cc2ccccc2)nc2cc(C34CC5CC(CC(C5)C3)C4)ccc21`, the TGI (SK-OV-3 ovarian) is reported as over 100 µM, the TGI (CCRF-CEM leukemia) is reported as over 100 µM and the TGI (OVCAR-8 ovarian) is reported as over 100 µM. For the same compound, the TGI (SF-295 CNS) was over 100 µM, the TGI (DU-145 prostate) was over 100 µM and the TGI (SF-268 CNS) was over 100 µM. For the same compound, the TGI (EKVX NSCLC) was over 100 µM, the TGI (PC-3 prostate) was over 100 µM and the TGI (HCT-116 colon) was over 100 µM. The TGI (NCI-H23 lung) was over 100 µM, the TGI (COLO 205 colon) was 58.2 µM and the TGI (UO-31 renal) was over 100 µM. The TGI (U251 CNS) was over 100 µM, the TGI (HOP-62 NSCLC) was over 100 µM and the TGI (SK-MEL-5 melanoma) was 56.5 µM. It also gave a TGI (TK-10 renal) of over 100 µM, a TGI (NCI-H460 lung) of over 100 µM and a TGI (NCI-H226 lung) of over 100 µM. The TGI (KM12 colon) was over 100 µM, the TGI (SNB-19 CNS) was over 100 µM and the TGI (SN12C renal) was over 100 µM. It also gave a TGI (SW-620 colon) of over 100 µM, a TGI (LOX IMVI melanoma) of over 100 µM and a TGI (RXF 393 renal) of over 100 µM. The TGI (MDA-N) was over 100 µM, the TGI (A549 NSCLC) was over 100 µM and the TGI (MCF7 breast) was 90 µM. The TGI (SNB-75 CNS) was over 100 µM, the TGI (A498 renal) was over 100 µM and the TGI (HCC-2998 colon) was over 100 µM. The TGI (SK-MEL-2 melanoma) was over 100 µM, the TGI (OVCAR-4 ovarian) was over 100 µM and the TGI (SR leukemia) was over 100 µM. For the same compound, the TGI (HS 578T breast) was over 100 µM, the TGI (RPMI-8226 leukemia) was over 100 µM and the TGI (UACC-257 melanoma) was over 100 µM. It also gave a TGI (NCI/ADR-RES ovarian) of over 100 µM, a TGI (HL-60(TB) leukemia) of over 100 µM and a TGI (HT29 colon) of over 100 µM. It also gave a TGI (SK-MEL-28 melanoma) of over 100 µM, a TGI (ACHN renal) of over 100 µM and a TGI (M14 melanoma) of over 100 µM. The TGI (HOP-92 NSCLC) was over 100 µM, the TGI (K-562 leukemia) was over 100 µM and the TGI (MDA-MB-231 breast) was over 100 µM. The TGI (NCI-H522 lung) was over 100 µM, the TGI (HCT-15 colon) was 48.5 µM and the TGI (MOLT-4 leukemia) was over 100 µM. The TGI (786-0 renal) was over 100 µM, the TGI (UACC-62 melanoma) was over 100 µM and the TGI (MDA-MB-435) was over 100 µM. For the same compound, the TGI (T-47D breast) was over 100 µM, the TGI (BT-549 breast) was over 100 µM and the TGI (CAKI-1 renal) was over 100 µM. The TGI (IGROV1 ovarian) was over 100 µM, the TGI (MALME-3M melanoma) was over 100 µM and the TGI (OVCAR-5 ovarian) was over 100 µM.
